Biological target: T1, bovine liver catalase (BLC) (Bos taurus, UniProt P00432)
T1 sequence (P00432 2-527): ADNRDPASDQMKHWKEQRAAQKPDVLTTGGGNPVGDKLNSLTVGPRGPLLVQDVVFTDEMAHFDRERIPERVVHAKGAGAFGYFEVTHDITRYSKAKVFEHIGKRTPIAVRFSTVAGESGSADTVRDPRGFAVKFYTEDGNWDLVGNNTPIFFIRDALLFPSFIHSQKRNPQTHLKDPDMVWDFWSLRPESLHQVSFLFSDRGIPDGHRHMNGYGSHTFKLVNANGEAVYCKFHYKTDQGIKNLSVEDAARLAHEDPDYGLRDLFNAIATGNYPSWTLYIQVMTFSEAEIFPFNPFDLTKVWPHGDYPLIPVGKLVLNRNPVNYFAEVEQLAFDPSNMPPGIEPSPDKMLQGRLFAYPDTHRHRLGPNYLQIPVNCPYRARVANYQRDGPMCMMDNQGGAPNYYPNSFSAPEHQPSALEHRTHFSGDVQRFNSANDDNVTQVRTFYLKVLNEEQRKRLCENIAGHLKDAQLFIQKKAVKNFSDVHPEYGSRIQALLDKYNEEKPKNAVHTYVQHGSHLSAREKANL
Experiment: UV assay of H2O2 decomposition at […] nm with Lineweaver-Burk analysis
Format: biochemical

## O=c1c(O)c(-c2ccc(O)c(O)c2)oc2cc(O)cc(O)c12 [QUE, 3,5,7,3ʹ,4ʹ-pentahydroxyflavone]
  Ki: 46 µM

— article PMC5684506 (BioImpacts : BI, 2017)
